According to ChEMBL document CHEMBL1154629, “Design, synthesis and biological evaluation of novel thiazole derivatives as potent FabH inhibitors” (Bioorg Med Chem Lett, 2009):
Values after ≈ are worked out from the molar mass of the structure shown.

Experiments:
[1] = tested on: Enterococcus faecalis; test: Antimicrobial activity Streptococcus faecalis ATCC 9790 by MTT assay; assay type: functional
[2] = tested on: Bacillus subtilis; test: Antimicrobial activity Bacillus subtilis ATCC 6633 by MTT assay; assay type: functional
[3] = tested on: Escherichia coli; test: Antimicrobial activity Escherichia coli ATCC 35218 by MTT assay
[4] = tested on: Staphylococcus aureus; test: Antimicrobial activity Staphylococcus aureus ATCC 6538 by MTT assay; assay type: functional
[5] = tested on: Pseudomonas aeruginosa; test: Antimicrobial activity Pseudomonas aeruginosa ATCC 13525 by MTT assay
[6] = tested on: Enterobacter cloacae; test: Antimicrobial activity Enterobacter cloacae ATCC 13047 by MTT assay; assay type: functional
[7] = Toxicity in erythrocytes assessed as hemolysis; assay type: cell-based; conditions: erythrocyte
[8] = target: T1, 3-oxoacyl-[acyl-carrier-protein] synthase 3 (Escherichia coli, UniProt C3TDZ2); test: Inhibition of Escherichia coli FabH
T1 sequence (C3TDZ2 whole entry): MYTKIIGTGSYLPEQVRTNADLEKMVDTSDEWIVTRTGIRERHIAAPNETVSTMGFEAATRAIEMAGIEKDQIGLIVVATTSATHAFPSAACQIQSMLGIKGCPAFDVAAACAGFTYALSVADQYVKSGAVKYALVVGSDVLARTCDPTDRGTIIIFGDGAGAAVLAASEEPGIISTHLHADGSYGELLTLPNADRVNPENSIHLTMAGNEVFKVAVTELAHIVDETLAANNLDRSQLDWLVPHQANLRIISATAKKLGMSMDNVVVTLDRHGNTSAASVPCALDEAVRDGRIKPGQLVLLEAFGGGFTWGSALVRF

| Compound | MIC [1] | MIC [2] | MIC [3] | MIC [4] | MIC [5] | MIC [6] | LC30 [7] | IC50 [8] |
| --- | --- | --- | --- | --- | --- | --- | --- | --- |
| CC1(C)S[C@@H]2[C@H](NC(=O)Cc3ccccc3)C(=O)N2[C@H]1C(=O)O [PENICILLIN G] | 1.56 µg/mL (≈ 4.67 µM) | 1.56 µg/mL (≈ 4.67 µM) | 6.25 µg/mL (≈ 18.7 µM) | 1.56 µg/mL (≈ 4.67 µM) | 6.25 µg/mL (≈ 18.7 µM) | 3.12 µg/mL (≈ 9.35 µM) | – | – |
| Oc1c(Br)cc(Br)cc1/C=N/Nc1nc(-c2ccc(Cl)c(Cl)c2)cs1 | 6.25 µg/mL (≈ 12 µM) | 3.12 µg/mL (≈ 5.99 µM) | – | 6.25 µg/mL (≈ 12 µM) | 3.12 µg/mL (≈ 5.99 µM) | 3.12 µg/mL (≈ 5.99 µM) | > 10000 µg/mL | 3.6 µM |
| NC[C@H]1O[C@H](O[C@H]2[C@H](O)[C@@H](O[C@H]3O[C@H](CO)[C@@H](O)[C@H](N)[C@H]3O)[C@H](N)C[C@@H]2N)[C@H](N)[C@@H](O)[C@@H]1O [BEKANAMYCIN] | 3.12 µg/mL (≈ 6.46 µM) | 0.39 µg/mL (≈ 0.807 µM) | 3.12 µg/mL (≈ 6.46 µM) | 1.56 µg/mL (≈ 3.23 µM) | 3.12 µg/mL (≈ 6.46 µM) | 1.56 µg/mL (≈ 3.23 µM) | – | – |
| Oc1ccc(Cl)cc1/C=N/Nc1nc(-c2ccc(Cl)c(Cl)c2)cs1 | 12.5 µg/mL (≈ 31.4 µM) | > 50 µg/mL | – | 12.5 µg/mL (≈ 31.4 µM) | 12.5 µg/mL (≈ 31.4 µM) | > 50 µg/mL | > 10000 µg/mL | 39.6 µM |
| Clc1ccc(/C=N/Nc2nc(-c3ccc(Cl)c(Cl)c3)cs2)cc1 | 25 µg/mL (≈ 65.3 µM) | 12.5 µg/mL (≈ 32.7 µM) | 12.5 µg/mL (≈ 32.7 µM) | 1.56 µg/mL (≈ 4.08 µM) | 12.5 µg/mL (≈ 32.7 µM) | 25 µg/mL (≈ 65.3 µM) | – | – |
| Fc1ccc(/C=N/Nc2nc(-c3ccc(Cl)cc3)cs2)cc1 | 12.5 µg/mL (≈ 37.7 µM) | 12.5 µg/mL (≈ 37.7 µM) | – | 6.25 µg/mL (≈ 18.8 µM) | 25 µg/mL (≈ 75.3 µM) | 25 µg/mL (≈ 75.3 µM) | – | – |
| Oc1ccc(Cl)cc1/C=N/Nc1nc(-c2ccccc2)cs1 | 25 µg/mL (≈ 75.8 µM) | > 50 µg/mL | 12.5 µg/mL (≈ 37.9 µM) | > 50 µg/mL | 12.5 µg/mL (≈ 37.9 µM) | > 50 µg/mL | – | – |
| Clc1ccc(-c2csc(N/N=C/c3ccc(Br)cc3)n2)cc1 | 25 µg/mL (≈ 63.7 µM) | 12.5 µg/mL (≈ 31.8 µM) | – | 12.5 µg/mL (≈ 31.8 µM) | > 50 µg/mL | 12.5 µg/mL (≈ 31.8 µM) | – | – |
| Oc1c(Cl)cc(Cl)cc1/C=N/Nc1nc(-c2ccc(Cl)c(Cl)c2)cs1 | 12.5 µg/mL (≈ 28.9 µM) | 12.5 µg/mL (≈ 28.9 µM) | – | 6.25 µg/mL (≈ 14.4 µM) | 6.25 µg/mL (≈ 14.4 µM) | 12.5 µg/mL (≈ 28.9 µM) | > 10000 µg/mL | 16.5 µM |
| Oc1c(Br)cc(Br)cc1/C=N/Nc1nc(-c2ccc(Cl)cc2)cs1 | > 50 µg/mL | > 50 µg/mL | – | 25 µg/mL (≈ 51.3 µM) | 25 µg/mL (≈ 51.3 µM) | 6.25 µg/mL (≈ 12.8 µM) | > 10000 µg/mL | 78.4 µM |
| Clc1ccc(-c2csc(N/N=C/c3ccc(Br)cc3)n2)cc1Cl | 25 µg/mL (≈ 58.5 µM) | 6.25 µg/mL (≈ 14.6 µM) | 12.5 µg/mL (≈ 29.3 µM) | 3.12 µg/mL (≈ 7.32 µM) | 12.5 µg/mL (≈ 29.3 µM) | > 50 µg/mL | – | – |
| Oc1ccc(Br)cc1/C=N/Nc1nc(-c2ccc(Cl)c(Cl)c2)cs1 | > 50 µg/mL | 12.5 µg/mL (≈ 28.2 µM) | – | 25 µg/mL (≈ 56.4 µM) | 12.5 µg/mL (≈ 28.2 µM) | 12.5 µg/mL (≈ 28.2 µM) | > 10000 µg/mL | 43.4 µM |
| Oc1c(Br)cc(Br)cc1/C=N/Nc1nc(-c2ccccc2)cs1 | 25 µg/mL (≈ 55.2 µM) | 12.5 µg/mL (≈ 27.6 µM) | 25 µg/mL (≈ 55.2 µM) | > 50 µg/mL | 25 µg/mL (≈ 55.2 µM) | 25 µg/mL (≈ 55.2 µM) | – | – |
| COc1ccc(/C=N/Nc2nc(-c3ccccc3)cs2)cc1 | > 50 µg/mL | 25 µg/mL (≈ 80.8 µM) | – | > 50 µg/mL | > 50 µg/mL | > 50 µg/mL | – | – |
| COc1ccc(/C=N/Nc2nc(-c3ccc(Cl)cc3)cs2)cc1 | > 50 µg/mL | 12.5 µg/mL (≈ 36.4 µM) | – | 25 µg/mL (≈ 72.7 µM) | 25 µg/mL (≈ 72.7 µM) | > 50 µg/mL | – | – |
| Clc1ccc(/C=N/Nc2nc(-c3ccccc3)cs2)cc1 | 25 µg/mL (≈ 79.7 µM) | 25 µg/mL (≈ 79.7 µM) | – | 25 µg/mL (≈ 79.7 µM) | 25 µg/mL (≈ 79.7 µM) | 25 µg/mL (≈ 79.7 µM) | – | – |
| Fc1ccc(/C=N/Nc2nc(-c3ccccc3)cs2)cc1 | > 50 µg/mL | 12.5 µg/mL (≈ 42 µM) | – | 6.25 µg/mL (≈ 21 µM) | 12.5 µg/mL (≈ 42 µM) | > 50 µg/mL | – | – |
| Clc1ccc(/C=N/Nc2nc(-c3ccc(Cl)cc3)cs2)cc1 | > 50 µg/mL | > 50 µg/mL | – | 12.5 µg/mL (≈ 35.9 µM) | 6.25 µg/mL (≈ 17.9 µM) | > 50 µg/mL | – | – |
| Brc1ccc(/C=N/Nc2nc(-c3ccccc3)cs2)cc1 | 1.56 µg/mL (≈ 4.36 µM) | > 50 µg/mL | – | 12.5 µg/mL (≈ 34.9 µM) | 12.5 µg/mL (≈ 34.9 µM) | 25 µg/mL (≈ 69.8 µM) | – | – |
| COc1ccc(/C=N/Nc2nc(-c3ccc(Cl)c(Cl)c3)cs2)cc1 | > 50 µg/mL | 25 µg/mL (≈ 66.1 µM) | – | 25 µg/mL (≈ 66.1 µM) | 25 µg/mL (≈ 66.1 µM) | 6.25 µg/mL (≈ 16.5 µM) | – | – |
| Oc1c(Cl)cc(Cl)cc1/C=N/Nc1nc(-c2ccccc2)cs1 | 25 µg/mL (≈ 68.6 µM) | 25 µg/mL (≈ 68.6 µM) | – | > 50 µg/mL | > 50 µg/mL | 12.5 µg/mL (≈ 34.3 µM) | – | – |
| Oc1ccc(Br)cc1/C=N/Nc1nc(-c2ccc(Cl)cc2)cs1 | 12.5 µg/mL (≈ 30.6 µM) | 25 µg/mL (≈ 61.2 µM) | – | 6.25 µg/mL (≈ 15.3 µM) | 6.25 µg/mL (≈ 15.3 µM) | 6.25 µg/mL (≈ 15.3 µM) | > 10000 µg/mL | 6.8 µM |
| Cc1ccc(/C=N/Nc2nc(-c3ccccc3)cs2)cc1 | > 50 µg/mL | > 50 µg/mL | – | 25 µg/mL (≈ 85.2 µM) | 25 µg/mL (≈ 85.2 µM) | > 50 µg/mL | – | – |
| Oc1ccc(Cl)cc1/C=N/Nc1nc(-c2ccc(Cl)cc2)cs1 | 25 µg/mL (≈ 68.6 µM) | 6.25 µg/mL (≈ 17.2 µM) | – | 12.5 µg/mL (≈ 34.3 µM) | 12.5 µg/mL (≈ 34.3 µM) | 12.5 µg/mL (≈ 34.3 µM) | > 10000 µg/mL | 11.7 µM |
| Cc1ccc(/C=N/Nc2nc(-c3ccc(Cl)c(Cl)c3)cs2)cc1 | > 50 µg/mL | > 50 µg/mL | 25 µg/mL (≈ 69 µM) | 25 µg/mL (≈ 69 µM) | 25 µg/mL (≈ 69 µM) | 12.5 µg/mL (≈ 34.5 µM) | – | – |
| Oc1c(Cl)cc(Cl)cc1/C=N/Nc1nc(-c2ccc(Cl)cc2)cs1 | 12.5 µg/mL (≈ 31.4 µM) | > 50 µg/mL | 6.25 µg/mL (≈ 15.7 µM) | > 50 µg/mL | 6.25 µg/mL (≈ 15.7 µM) | > 50 µg/mL | > 10000 µg/mL | 57.6 µM |
| Fc1ccc(/C=N/Nc2nc(-c3ccc(Cl)c(Cl)c3)cs2)cc1 | 6.25 µg/mL (≈ 17.1 µM) | 6.25 µg/mL (≈ 17.1 µM) | 25 µg/mL (≈ 68.3 µM) | 0.78 µg/mL (≈ 2.13 µM) | 25 µg/mL (≈ 68.3 µM) | 25 µg/mL (≈ 68.3 µM) | – | – |
| Cc1ccc(/C=N/Nc2nc(-c3ccc(Cl)cc3)cs2)cc1 | 12.5 µg/mL (≈ 38.1 µM) | 6.25 µg/mL (≈ 19.1 µM) | – | 25 µg/mL (≈ 76.3 µM) | 25 µg/mL (≈ 76.3 µM) | 6.25 µg/mL (≈ 19.1 µM) | – | – |
| Oc1ccc(Br)cc1/C=N/Nc1nc(-c2ccccc2)cs1 | 12.5 µg/mL (≈ 33.4 µM) | 12.5 µg/mL (≈ 33.4 µM) | – | 25 µg/mL (≈ 66.8 µM) | 25 µg/mL (≈ 66.8 µM) | 25 µg/mL (≈ 66.8 µM) | – | – |
